# According to patent USRE37410E, “Controlled local delivery of chemotherapeutic agents for treating solid tumors” (priority 1999, dated 2001):
# Experiments:
# H80 = format: cell-based; conditions: Homo sapiens; continuous 6-8 days exposure; read-out: LD90 (the source's name)
# Procedure: (§1) Cell culture. Tumor sensitivity to paclitaxel was measured by the clonogenic assay described by Rosenblum, et al., Cancer 41:2305-2314 (1978) and Salcman, et al., Neurosurgery 29:526-531 (1991) with rat glioma (9L, F98), human glioma (H80, U87, U373), and human medulloblastoma (D324) cell lines. Cells were grown and propagated in minimum essential medium (MEM) supplemented with 10% fetal bovine serum, L-glutamine, penicillin, and streptomycin and incubated at 37° C. in an atmosphere containing 5% CO2. At the start of each assay, 600 tumor cells in 2 ml of medium were plated on Falcon 6-well tissue-culture plates (Becton-Dickenson, Lincoln Park, N.J.). After incubating for 24 h, the medium was removed from the places and replaced with 2 ml of medium containing paclitaxel and 0.1% dimethylsulfoxide (DMSO). The treatment solutions were prepared as described by Roytta et al., Prostate 11:95-106 (1987). The paclitaxel treatment solution was then either replaced with fresh paclitaxel-free media containing 0.1% DMSO after 1 or 24 h or was left on the places for the 6- to 8-day incubation period. […] The colonies on each plate were counted and the result was expressed as a percentage of the colonies formed on control plates not exposed to paclitaxel. […] Graphs were prepared and analyzed using Cricket Graph v. […]
# U87 = format: cell-based; conditions: Homo sapiens, U-87 MG; continuous 6-8 days exposure; read-out: LD90 (the source's name)
# Procedure: as §1
# [1] = system: 9L, F98, U373, H80, U87, D324 cell lines; assay: In vitro efficacy of paclitaxel on several cell lines (clonogenic assay); format: cell-based, rat and human
# [2] = system: ovarian, breast, lung, and prostatic cancer and melanoma; conditions: cited from earlier work
# [3] = In vitro release of paclitaxel from PCPP-SA (20:80) polymer discs; format: physicochemical
# Procedure: Solid paclitaxel, obtained from Napro Biotherapeutics (Boulder, Colo.) or from the National Cancer Institute (Bethesda, Md.), was mixed with poly[bis(p-carboxyphenoxy)propane-sebacic acid] copolymer (PCPP-SA) (20:80) synthesized according to the method of Domb, A. J., and R. Langer (J. Polym. Sci. 25:3373-3386 (1987)), the teachings of which are incorporated herein by reference, to give a mixture containing 0, 20, 30, or 40% paclitaxel by weight. The paclitaxel-polymer mixture was dissolved in methylene chloride (Fluka, Switzerland) to give a 10% solution (w:v). The solvent was evaporated with a nitrogen stream to yield a dry powder. […]
# The efficiency of the delivery of paclitaxel incorporated into a biodegradable polymer into the surrounding medium was assessed in vitro as follows. […]
# Protocol. […] The releasing medium was replaced at specified times during the 45-day (1000 hour) incubation period, and the recovered solutions were analyzed by scintillation counting and high pressure liquid chromatography (HPLC). […] Radioactive analysis to quantify the amount of paclitaxel release was done by mixing 200 μl of the releasing buffer solution with 4 ml of a scintillation mixture composed of toluene and Lumax (Landgraat, The Netherlands) scintillation mixture in a 2:1 volume ratio. This solution was counted on a 1211 Rack β-liquid scintillation counter (LKB-Wallac OY, Finland). […]
# [4] = maintenance of sufficient systemic levels; cited from earlier work
compound,measurement,setting,value
CC(=O)O[C@H]1C(=O)[C@@]2(C)[C@H]([C@H](OC(=O)c3ccccc3)[C@]3(O)C[C@H](OC(=O)[C@H](O)[C@@H](NC(=O)c4ccccc4)c4ccccc4)C(C)=C1C3(C)C)[C@]1(OC(C)=O)CO[C@@H]1C[C@@H]2O [paclitaxel],IC90,H80,19 nM
same,IC90,U87,9.1 nM
same,factor of potency increase in vitro,[1]; exposure for more than 24 h,two to four
same,concentration at which log cell kill occurred,[1]; rat and human brain-tumor cell lines,nanomolecular concentrations
same,amount required for log cell kill in rat lines relative to human lines,"[1]; rat lines (9L, F98) vs human lines (U87, U373, H80), 6-8 days",four to ten
same,concentrations cytotoxic in vitro,[2],nanomolecular concentrations
same,release profile,"[3]; each of the polymer loadings, phosphate buffer pH 7.4, 37° C","released biphasically from the polymer, with an initial burst phase followed by a slower constant release phase"
same,identity of released paclitaxel by HPLC,[3]; released into buffer,corresponded with intact paclitaxel
same,systemic toxicity,[4],"severe, in some cases ""life-threatening"" toxicity"
